According to patent publication US20240424002A1, “METHODS AND COMPOSITIONS FOR TREATING MELANOMA” (THE REGENTS OF THE UNIVERSITY OF CALIFORNIA, priority 2021, published 2024):
Entries after “also recorded” stand apart in the source; their conditions may differ.

Experiments:
[1] = tested on: M229P/R, M238P/R and SKMEL28P/R cell lines; details: resistance through upregulation of RTKs, dedifferentiation; cited from earlier work
[2] = tested on: Mel888-DTR cells vs parental; assay: Dose response curve of ferroptosis inducing agents, viability by CellTiter-Glo; format: cell-based
Protocol: (§1) The dose response curves of ferroptosis inducing agents RSL3, Erastin and Ferroptocide were performed by seeding appropriate number of cells on day 0 in 96-well plates, […] luminescent assay. If not otherwise mentioned, resistance cells were maintained in full dose of MAPK inhibitors throughout the dose response experiments to keep the BRAF amplifications. Seeding density for each cell line was determined by using the same assay and the same experimental length with multiple cell number titrations. The dose series were generated by serial dilutions. All drugs used for dose response curves were dissolved in DMSO. DMSO toxicity was performed on the cell lines to determine the appropriate DMSO concentration (0.5%), which was used in all doses. The resulting values from viability assays were normalized to the zero-dose condition after subtracting background (wells with no cells). The curve fittings were performed by using three-parameter model in dre v3.0-1 R package (119).

[3] = tested on: A375-DTR cells vs parental; assay: as above; format: cell-based
Protocol: as §1

[4] = tested on: M249-P and M249-VSR-DM cells; assay: Lipid ROS measurement by flow cytometry; format: cell-based, human; details: FIG. 23A / 25A
[5] = tested on: M249-P, M249-VSR-DM and M249-VSR-HSR cells; assay: Dose response curve of ferroptosis inducing agents, viability by CellTiter-Glo; format: cell-based, human; details: for sensitivity to RSL3 of M249-VSR after drug withdrawal: after VEM+SEL withdrawal, reduced BRAF copy number
Protocol: as §1

M249-VSR sublines = assay: Viability assay for inducing and protecting from ferroptosis; format: cell-based, human; details: added in combination with RSL3; CellTiter-Glo 24 hr after treatment; FIG. 7B-C / 24B-C
Protocol: 6000 cells were seeded per well in 96-well plates and treated with ferroptosis inducing agents in combination with vehicle, GSH (Sigma, G4376), Trolox (Acros Organics, 218940010) or DFO (Sigma, D9533) next day. CellTiter-Glo luminescence was assessed 24 hr after treatment. For quantification, all values are normalized to vehicle conditions. Resistance cells were maintained in full dose of MAPK inhibitors throughout the treatments to keep the BRAF amplifications.

[6] = tested on: SC2 cells (M249-VSR HSR subclone); assay: FISH count of HSRs per cell after long-term DNA-PK inhibition; format: cell-based, human; details: 5 μM NU7026 for three months vs DMSO; FIG. 2G
Protocol: (§2) Cells were blocked at metaphases by adding colcemid (KaryoMax, Thermo Fisher Scientific) at a final concentration of 0.05 μg/ml followed by incubation at 37° C. for 6-8 hours. Cells were then fixed using methanol:acetic acid (3:1). FISH slides were prepared by dropping fixed cells in a humid environment following the manufacture's protocol provided by Cytotest and Empire Genomics. FFPE xenograft tumor FISH slides were prepared by pepsin digestion followed by similar procedures of cell line FISH. Colored FISH images were taken and processed using confocal microscope Leica TCS SP8 X. Karyotype categorizations were based on the guidelines in FIG. 8. The fractions under certain images represent the number of cases for corresponding karyotype divided by total number of cases analyzed. If not otherwise mentioned, scale bars in FISH images represent 10 μm. Centromere probe names are abbreviated as CEN-x. DM numbers were quantified by directly counting the number of features in the FISH images or by using ecDNA quantification tool EcSeg (93). HSR lengths were quantified by dividing the probe area by chromosomal DAPI area in metaphases. The staining areas were calculated using ImageJ v1.53a. Cells fixed by the same procedure were also used for G-banding. G-banded metaphase spreads were photographed using 80i Nikon Microscope and Applied Spectral Imaging (ASI) Karyotyping system. […]

[7] = tested on: SC4 DM+ cells (M249-VSR single-cell-derived clone); assay: FISH assessment of HSRs after long-term DNA-PK inhibition; format: cell-based, human; details: 5 μM NU7026 for 107 days vs DMSO 90 days; FIG. 2E
Protocol: as §2

For COC(=O)c1ccc([C@@H]2c3[nH]c4ccccc4c3C[C@@H](C(=O)OC)N2C(=O)CCl)cc1 [RSL3], the “sensitivity to RSL3 of resistant vs parental lines” value [1] is given as “increased sensitivity”, the “RSL3 sensitivity of Mel888-DTR compared to parental” value ([2]; FIG. 7A, 72 hr treatment) is given as “increased RSL3 sensitivity” and the “RSL3 sensitivity of Mel888-DTR compared to parental” value ([2]; FIG. 24A, 24 hr treatment) is given as “increased RSL3 sensitivity”. The “RSL3 sensitivity of A375-DTR compared to parental” value ([3]; FIG. 7A, 72 hr treatment) was “increased RSL3 sensitivity”, the “RSL3 sensitivity of A375-DTR compared to parental” value ([3]; FIG. 24A, 24 hr treatment) was “increased RSL3 sensitivity” and the “lipid ROS levels upon RSL3 treatment” value ([4]; 1 μM RSL3, 24 hr, C11-BODIPY dye) was “increased lipid ROS levels; also recorded: increase in lipid ROS levels”. For the same molecule, the “sensitivity to RSL3 of M249-VSR-DM and -HSR compared to M249-P” value ([5]; FIG. 7A, 72 hr treatment) was “substantially more sensitive”, the “sensitivity to RSL3 of M249-VSR after drug withdrawal” value ([5]; FIG. 7A, 72 hr treatment) was “lose sensitivity reverting to levels closer to the parental cells” and the “sensitivity to RSL3 of M249-VSR-DM and -HSR compared to M249-P” value ([5]; FIG. 24A, 24 hr treatment, CellTiter-Glo, resistant cells kept in full dose MAPK inhibitors) was “substantially more sensitive”. The “sensitivity to RSL3 of M249-VSR after drug withdrawal” value ([5]; FIG. 24A, 24 hr treatment) was “lose sensitivity reverting to levels closer to the parental cells”.

With N[C@@H](CCC(=O)N[C@@H](CS)C(=O)NCC(=O)O)C(=O)O [GSH, reduced glutathione] the “rescue of RSL3-induced cell death (percent viable cells)” value (M249-VSR sublines) was “cell death can be rescued”.

With C[C@@H]1CC[C@@]23C[C@H](O)C(=O)[C@@]2(O)[C@]1(C)[C@H](OC(=O)CCl)C[C@@H](C1=CCn2c(=O)n(-c4ccccc4)c(=O)n2C1)[C@@H]3C [ferroptocide] the “sensitivity of BRAF-amplified M249 dual MAPKi-resistant cells compared to parental” value ([5]; FIG. 23B, M249-VSR-DM and -HSR, 72 hr treatment, CellTiter-Glo) was “sensitive”.

For Cc1c(C)c2c(c(C)c1O)CCC(C)(C(=O)O)O2 (stereo not shown) [Trolox], the “rescue of RSL3-induced cell death (percent viable cells)” value (M249-VSR sublines) was “cell death can be rescued” and the “protection against RSL3-induced lipid ROS” value ([4]; 150 μM Trolox with 1 μM RSL3, 24 hr) was “protected; also recorded: protects against RSL3-induced lipid ROS”.

In the case of O=c1cc(N2CCOCC2)oc2c1ccc1ccccc12 [NU7026], the “percentage of cells with multiple HSRs” value [6] is reported as “lower percentage of multiple HSRs” and the “frequency of cells displaying HSR integrations” value [7] is reported as “decreased the frequency of cells displaying HSR integrations”.
